Source: patent US5164411A, “Pyrethroid compositions” (priority 1991, dated 1992)

Legend:
[1] = system: rainbow trout (Oncorhynchus mykiss); experiment: Ninety-six-hour flow-through acute toxicity, rainbow trout; format: in vivo
Procedure: (§1) Ninety-six-hour flow-through acute toxicity studies of both cypermethrin and sigma-cypermethrin were conducted in the rainbow trout (Oncorhynchus mykiss) and in the sheepshead minnow (Cyprinodon variagatus) to determine the median-lethal-concentration (LC50) resulting from continuous exposure. For the rainbow trout the exposure medium was well water; for the sheepshead minnow, filtered seawater. Each group of 20 fish (10 per replicate aquarium) was exposed either to one of five concentrations of pyrethroid delivered in a diluter system in dimethylformamide (DMF), to 30 μL/L DMF in the exposure medium (solvent control), or to the exposure medium alone (control). Observations for mortality, morbidity, and other overt signs of toxicity were determined at prescribed intervals. Concentrations of the test materials were measured at the beginning and end of the exposure using a validated HPLC method. The cypermethrin isomer content (weight %) of the sigma-cypermethrin technical product used in this study was total isomers--88.2%, S-isomers--82%, cis/trans ratio--53/47.

[2] = system: sheepshead minnow (Cyprinodon variagatus); experiment: Ninety-six-hour flow-through acute toxicity, sheepshead minnow; format: in vivo
Procedure: as §1

[3] = system: mammals and certain species of fish; experiment: Mammalian toxicology and fish toxicity, summary of the tests; format: in vivo, rat; fish; conditions: at rates giving commercial control of target crop insects
Procedure: In the 90-day feeding study, conducted in compliance with EPA guideline 82-1, the compound under test was administered continuously in the diet to groups of rats for at least ninety days at concentrations of 0, 150, and 1500 ppm to groups of fifteen Sprague-Dawley rats for cypermethrin and 0, 10, 50, 150, 250, 500, and 900 ppm to groups of ten Fisher 344 rats for sigma-cypermethrin. (The rates for sigma-cypermethrin were lower, because it was expected to be more toxic than cypermethrin.) The cypermethrin isomer content (weight %) of the sigma-cypermethrin technical product used in this study was total isomers--88.2%, S-isomers--82%, cis/trans ratio--53/47. Individual body weight and food consumption values were recorded weekly. At termination, hematology and clinical chemistry determinations were conducted and organ weights were obtained for adrenals, brain, heart, kidneys, liver, and ovaries or testes. […]
Multigeneration studies were conducted in compliance with EPA guideline 83-4 and provide information on reproductive parameters as well as neonatal morbidity and mortality for multiple generations. […] Body weights and food consumption were recorded at regular intervals. […]

Lepidoptera = experiment: Foliar evaluation, average over Lepidoptera; format: in vivo; conditions: laboratory
Procedure: (§2) Cypermethrin and sigma-cypermethrin were tested by foliar application at various concentrations in aqueous solutions containing 9.75% acetone and 0.25% octylphenoxypolyethoxyethanol. Insect species utilized included the cabbage looper (Trichoplusia ni), southern armyworm (Spodoptera eridania), Mexican bean beetle (Epilachna varivestis), tobacco budworm (Heliothis virescens), and corn earworm (Heliothis zea).
(§3) For all insects, pinto beans (Phaseolus vulgaris) plants were treated with the test solutions. The test solutions were applied with a sprayer to the upper and lower surfaces of the plant leaves to runoff. The plants were then allowed to dry and were severed at the base of the stem before being placed in cups. Ten second instar individuals of the appropriate insect species, except the tobacco budworm and corn earworm, were placed in each cup and the cup covered. Tests with the tobacco budworm and corn earworm used four replicates with each replicate containing five second instar insects. In all tests, mortality was read 48 hours later. The sigma-cypermethrin used in the foliar evaluations was the product of Example 2.

certain insect species = experiment: Insecticidal activity, overall statement; format: in vivo
Procedure: as §2, §3

target crop insects = experiment: Field trials, overall statement; format: in vivo; conditions: at half the rate of cypermethrin, or even lower
Description: Field trials conducted on cotton in Louisiana, Mississippi, Alabama, and Arizona consisted of a randomized complete block design of four replications per treatment. Plots were a minimum of 0.2 acres, and all applications were by commercial ground equipment with a minimum of 10 gallons total spray solution per acre. The cypermethrin isomer content (weight %) of the several sigma-cypermethrin technical products used in the field trials were as follows:
Analysis of the data was based on a seasonal average of multiple evaluations taken over a four to six week period (3-4 applications) in trials for control of Heliothis sp.
Field trials conducted on lettuce in California for evaluation of the control of cabbage looper consisted of a randomized complete block design of four replications per treatment. Applications were made to small plots with CO2 backpack sprayer using a minimum of 10 gallons per acre. Results were converted to percent control based on untreated check plots.
Field trials were conducted in Louisiana, North Carolina, Texas, Kentucky, Tennessee, and Illinois to evaluate the control of alfalfa weevil (Hypera postica). Small plot trials were used in a randomized block design with four replications per treatment. Applications were made with CO2 backpack sprayers. […]

## CC1(C)C(C=C(Cl)Cl)C1C(=O)O[C@H](C#N)c1cccc(Oc2ccccc2)c1 (mixture of isomers) [sigma-cypermethrin, (S)(cyano)(3-phenoxyphenyl)methyl cis/trans-3-(2,2-dichloroethenyl)-2,2-dimethylcyclopropanecarboxylate]
[1]
  ratio of the cypermethrin LC50 to the sigma-cypermethrin LC50: 1.3
[2]
  ratio of the cypermethrin LC50 to the sigma-cypermethrin LC50: 1.64
[3]
  toxicity relative to cypermethrin: significantly less toxic to mammals and certain species of fish
Lepidoptera
  average effectiveness relative to cypermethrin: 1.9 times
Certain insect species
  effectiveness relative to cypermethrin: twice as effective as cypermethrin
Target crop insects
  field results relative to cypermethrin: generally gave results essentially equivalent to that obtained with cypermethrin applied at the recommended rate
